Measured values as given in PubChem BioAssay (NCI).
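The concentration for 50% growth inhibition is given as GI50. The concentration for full growth arrest is given as TGI.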

Legend:
Test in all cases: growth of human tumour cells (NCI), 384-well format
SK-MEL-5 melanoma = tested on: SK-MEL-5 melanoma
SW-620 colon = tested on: SW-620 colon
DU-145 prostate = tested on: DU-145 prostate
HOP-92 NSCLC = tested on: HOP-92 NSCLC
NCI-H522 lung = tested on: NCI-H522 lung
T-47D breast = tested on: T-47D breast
A498 renal = tested on: A498 renal
CCRF-CEM leukemia = tested on: CCRF-CEM leukemia
SR leukemia = tested on: SR leukemia
SK-MEL-28 melanoma = tested on: SK-MEL-28 melanoma
HT29 colon = tested on: HT29 colon
SF-268 CNS = tested on: SF-268 CNS
NCI-H23 lung = tested on: NCI-H23 lung

Which GI50 (SK-MEL-5 melanoma) does the source give for `C[C@@H](C(=O)Nc1ccc(Cl)cc1)C1CCC(c2ccnc3ccc(F)cc23)CC1` (stereo partly specified) here?
Its GI50 is 4.31 µM.

And the TGI (SK-MEL-5 melanoma)?
Its TGI is 16.2 µM.

And the GI50 (SW-620 colon)?
Its GI50 is 8.3 µM.

What about the TGI (SW-620 colon) of the same compound?
The TGI was 22.6 µM.

What about the GI50 (DU-145 prostate) of the same compound?
Its GI50 is 8.74 µM.

And the TGI (DU-145 prostate)?
Its TGI is 33.2 µM.

What about the GI50 (HOP-92 NSCLC) of the same compound?
The GI50 was 8.04 µM.

And the TGI (HOP-92 NSCLC)?
Its TGI is 29.4 µM.

What about the GI50 (NCI-H522 lung) of the same compound?
Its GI50 is 3.24 µM.

And the TGI (NCI-H522 lung)?
The TGI was 15.9 µM.

And the GI50 (T-47D breast)?
The GI50 was 4.42 µM.

What about the TGI (T-47D breast) of the same compound?
The TGI was 25.2 µM.

What about the GI50 (A498 renal) of the same compound?
The GI50 was 5.31 µM.

And the TGI (A498 renal)?
The TGI was 21.1 µM.

And the GI50 (CCRF-CEM leukemia)?
The GI50 was 2.64 µM.

What about the TGI (CCRF-CEM leukemia) of the same compound?
The TGI was 7.41 µM.

And the GI50 (SR leukemia)?
The GI50 was 0.584 µM.

What about the TGI (SR leukemia) of the same compound?
Its TGI is 1.46 µM.

And the GI50 (SK-MEL-28 melanoma)?
Its GI50 is 20.6 µM.

What about the TGI (SK-MEL-28 melanoma) of the same compound?
Its TGI is over 92 µM.

And the GI50 (HT29 colon)?
Its GI50 is 9.74 µM.

What about the TGI (HT29 colon) of the same compound?
Its TGI is 23.1 µM.

What about the GI50 (SF-268 CNS) of the same compound?
The GI50 was 6.42 µM.

What about the TGI (SF-268 CNS) of the same compound?
Its TGI is 22.7 µM.

What about the GI50 (NCI-H23 lung) of the same compound?
Its GI50 is 3.76 µM.

What about the TGI (NCI-H23 lung) of the same compound?
Its TGI is 16 µM.
